Results from patent publication US20150011528A1, “PHENYLIMIDE-CONTAINING BENZOTHIAZOLE DERIVATIVE OF ITS SALT AND PHARMACEUTICAL COMPOSITION COMPRISING THE SAME” (YUHAN CORPORATION, priority 2011, published 2015).

Tested on: A549 cells
Assay: Cell Migration Assay (transwell, laminin)
Format: cell-based
Conditions: laminin 10 μg/mL in lower well, test compounds 0.39˜100 μM, 6 hours at 37° C.
Procedure: Cell migration was measured with a 24-well transwell having a polycarbonate membrane (8.0 μm pore size, Costar) at the bottom of the upper chamber. Each lower well was treated with laminin (10 μg/mL) and test compounds (0.39˜100 μM) along with a serum-free RPMI1640 medium. A549 cells (Korean Cell Line Bank) were suspended in a serum-free RPMI1640 medium at a concentration of 1×10^6 cells/mL and then the test compounds were added thereto at the indicated concentrations. Each resulting solution (100 μL) was added to the upper chamber. The cells were cultured at 37° C. for 6 hours in a CO2 incubator. The upper chamber was taken out and then the cells were fixed with PBS containing 70% methyl alcohol for 10 minutes, followed by washing with PBS twice. The cells were stained with hematoxylin (Sigma) for 10 minutes and then washed with distilled water. The non-migrated cells were removed from the upper portion of the polycarbonate membrane with a cotton swab. The membranes were excised and separated from the chamber, and then mounted to a slide using a gel mount reagent (Biomeda, USA). The migrated cells (attached to the lower face of the membrane) were counted at three randomly selected sites under a microscope (×20). The cell counting was performed with the Image J program. From the counted cell numbers, each IC50 value was calculated by non-linear regression curve fit using the “GraphPad Prism” program.
The cells are pulled by laminin residing in the lower chamber and then passed through the polycarbonate membrane, so as to attach to the lower face of the membrane.

Work on `CCC(C(=O)O)n1c(=NC(=O)c2ccc(C)cc2)sc2cc(C)c(C)cc21` (stereo not shown) [Example 6, 2-{5,6-dimethyl-2-[(4-methylbenzoyl)imino]benzo[d]thiazol-3(2H)-yl}butanoic acid] yielded an IC50 (Homo sapiens) of 26.5 µM.

With `CCC(C(=O)O)n1c(=NC(=O)c2ccc(C)cc2)sc2cc(OC(F)(F)F)ccc21` (stereo not shown) [Example 14, 2-{2-[(4-methylbenzoyl)imino]-6-(trifluoromethoxy)benzo[d]thiazol-3(2H)-yl]butanoic acid] the IC50 (Homo sapiens) was 21.5 µM.

In the case of `CCC(C(=O)O)n1c(=NC(=O)c2ccc(C)cc2)sc2cc(C)c(F)cc21` (stereo not shown) [Example 16, 2-{5-fluoro-6-methyl-2-[(4-methylbenzoyl)imino]benzo[d]thiazol-3(2H)-yl}butanoic acid], the IC50 (Homo sapiens) is reported as 11.8 µM.

`CCC(C(=O)O)n1c(=NC(=O)c2ccc(C)cc2)sc2cc([N+](=O)[O-])ccc21` (stereo not shown) [Example 23, 2-{2-[(4-methylbenzoyl)imino]-6-nitrobenzo[d]thiazol-3(2H)-yl}butanoic acid] was tested, and the IC50 (Homo sapiens) was 23.7 µM.

In the case of `COc1ccc2c(c1)sc(=NC(=O)c1cccc(Cl)c1)n2C(C)C(=O)O` (stereo not shown) [Example 53, 2-{2-[(3-chlorobenzoyl)imino]-6-methoxybenzo[d]thiazol-3(2H)-yl}propionic acid], the IC50 (Homo sapiens) is reported as 59 µM.

`CCC(C(=O)O)n1c(=NC(=O)c2ccc(OC)cc2)sc2ccccc21` (stereo not shown) [Example 60, 2-[2-(4-methoxybenzoylimino)benzo[d]thiazol-3(2H)-yl]butanoic acid] was tested, and the IC50 (Homo sapiens) was 26.9 µM.

`CCC(C(=O)O)n1c(=NC(=O)c2cccc(Br)c2)sc2ccccc21` (stereo not shown) [Example 83, 2-[2-(3-bromobenzoylimino)benzo[d]thiazol-3(2H)-yl]butanoic acid] gave an IC50 (Homo sapiens) of 12.3 µM.

Molecule `CCC(C(=O)O)n1c(=NC(=O)c2ccc(C)cc2)sc2ccc(F)cc21` (stereo not shown) [Example 90, 2-[5-fluoro-2-(4-methylbenzoylimino)benzo[d]thiazol-3(2H)-yl]butanoic acid] has an IC50 (Homo sapiens) of 31.6 µM.

`CCC(C(=O)O)n1c(=NC(=O)c2ccc(C)cc2)sc2ccc(C)cc21` (stereo not shown) [Example 100, 2-[5-methyl-2-(4-methylbenzoylimino)benzo[d]thiazol-3(2H)-yl]butanoic acid] showed an IC50 (Homo sapiens) of 43 µM.

Molecule `Cc1ccc(C(=O)N=c2sc3c(C)cccc3n2C(C)C(=O)O)cc1` (stereo not shown) [Example 103, 2-[7-methyl-2-(4-methylbenzoylimino)benzo[d]thiazol-3(2H)-yl]propionic acid] has an IC50 (Homo sapiens) of 28 µM.

In the case of `CCC(C(=O)O)n1c(=NC(=O)c2ccc(C)cc2)sc2ccc(Cl)cc21` (stereo not shown) [Example 105, 2-[5-chloro-2-(4-methylbenzoylimino)benzo[d]thiazol-3(2H)-yl]butanoic acid], the IC50 (Homo sapiens) is reported as 19 µM.

`O=C(O)Cn1c(=NC(=O)c2cccc(Cl)c2)sc2ccccc21` [Example 123, 2-[2-(3-chlorobenzoylimino)benzo[d]thiazol-3(2H)-yl]acetic acid] was tested, and the IC50 (Homo sapiens) was 40.1 µM.

For `CCCCCCC(C(=O)O)n1c(=NC(=O)c2ccc(C)cc2)sc2ccccc21` (stereo not shown) [Example 147, 2-[2-(4-methylbenzoylimino)benzo[d]thiazol-3(2H)-yl]octanoic acid], the IC50 (Homo sapiens) was 5.7 µM.

Work on `Cc1ccc(C(=O)N=c2sc3ccccc3n2C(C(=O)O)c2ccccc2)cc1` (stereo not shown) [Example 152] yielded an IC50 of 22.7 µM.

`CCC(C(=O)O)n1c(=NC(=O)c2ccc(C)cc2)sc2cc(F)ccc21` (stereo not shown) [Example 153, 2-[6-fluoro-2-(4-methylbenzoylimino)benzo[d]thiazol-3(2H)-yl]butanoic acid] showed an IC50 (Homo sapiens) of 31.1 µM.

For `CCC(C(=O)O)n1c(=NC(=O)c2cccc(Cl)c2)sc2cc(C(F)(F)F)ccc21` (stereo not shown) [Example 173, 2-(2-((3-chlorobenzoyl)imino)-6-(trifluoromethyl)benzo[d]thiazol-3(2H)-yl)butanoic acid], the IC50 (Homo sapiens) was 16.5 µM.

`CC(C(=O)O)n1c(=NC(=O)c2ccc(C(F)(F)F)cc2)sc2ccccc21` (stereo not shown) [Example 186, 2-(2-(4-(trifluoromethyl)benzoylimino)benzo[d]thiazol-3(2H)-yl)propionic acid] showed an IC50 (Homo sapiens) of 101 µM.

For `COc1ccc2c(c1)sc(=NC(=O)c1cccc(C(F)(F)F)c1)n2C(C)C(=O)O` (stereo not shown) [Example 189, 2-(6-methoxy-2-((3-(trifluoromethyl)benzoyl)imino)benzo[d]thiazol-3(2H)-yl)propionic acid], the IC50 (Homo sapiens) was 87 µM.

`CCOc1ccc2c(c1)sc(=NC(=O)c1cccc(C(F)(F)F)c1)n2C(C)C(=O)O` (stereo not shown) [Example 192, 2-(6-ethoxy-2-((3-(trifluoromethyl)benzoyl)imino)benzo[d]thiazol-3(2H)-yl)propionic acid] was tested, and the IC50 (Homo sapiens) was 33 µM.

For `Cc1ccc2c(c1)sc(=NC(=O)c1cccc(C(F)(F)F)c1)n2C(C)C(=O)O` (stereo not shown) [Example 195, 2-(6-methyl-2-((3-(trifluoromethyl)benzoyl)imino)benzo[d]thiazol-3(2H)-yl)propionic acid], the IC50 (Homo sapiens) was 87 µM.

For `Cc1cc2sc(=NC(=O)c3cccc(Cl)c3)n(C(C)C(=O)O)c2cc1C` (stereo not shown) [Example 212, 2-(2-((3-chlorobenzoyl)imino)-5,6-dimethylbenzo[d]thiazol-3(2H)-yl)propionic acid], the IC50 (Homo sapiens) was 33 µM.

In the case of `CCC(C(=O)O)n1c(=NC(=O)c2cccc(Cl)c2)sc2cc3c(cc21)OCO3` (stereo not shown) [Example 240, 2-(6-((3-chlorobenzoyl)imino)-[1,3]dioxolo[4′,5′:4,5]benzo[1,2-d]thiazol-7(6H)-yl)butanoic acid], the IC50 (Homo sapiens) is reported as 16 µM.

`CC(C(=O)O)n1c(=NC(=O)c2cccc(Cl)c2)sc2c(C(F)(F)F)cccc21` (stereo not shown) [Example 270, 2-(2-(3-chlorobenzoylimino)-7-(trifluoromethyl)benzo[d]thiazol-3(2H)-yl)propionic acid] was tested, and the IC50 (Homo sapiens) was 1 µM.

In the case of `COc1cccc2sc(=NC(=O)c3cccc(Cl)c3)n(C(C)C(=O)O)c12` (stereo not shown) [Example 282, 2-(2-(3-chlorobenzoylimino)-4-methoxybenzo[d]thiazol-3(2H)-yl)propionic acid], the IC50 (Homo sapiens) is reported as 25 µM.

Molecule `CC(C(=O)O)n1c2c(sc1=NC(=O)c1cccc(C(F)(F)F)c1)CCCC2` (stereo not shown) [Example 295, 2-(2-(3-(trifluoromethyl)benzoylimino)-4,5,6,7-tetrahydrobenzo[d]thiazol-3(2H)-yl)propionic acid] has an IC50 (Homo sapiens) of 60 µM.

Work on `Cc1cccc2c1sc(=NC(=O)c1cccc(C(F)(F)F)c1)n2C(C)C(=O)O` (stereo not shown) [Example 314, 2-(7-methyl-2-(3-(trifluoromethyl)benzoylimino)benzo[d]thiazol-3(2H)-yl)propionic acid] yielded an IC50 (Homo sapiens) of 46 µM.

`CC(C(=O)O)n1c(=NC(=O)c2cccc(C(F)(F)F)c2)sc2c(F)cccc21` (stereo not shown) [Example 346, 2-(7-fluoro-2-((3-(trifluoromethyl)benzoyl)imino)benzo[d]thiazol-3(2H)-yl)propionic acid] showed an IC50 (Homo sapiens) of 124 µM.

In the case of `O=C(O)Cn1c(=NC(=O)c2cccc(Cl)c2)sc2c(F)cccc21` [Example 347, 2-(2-((3-chlorobenzoyl)imino)-7-fluorobenzo[d]thiazol-3(2H)-yl)acetic acid], the IC50 (Homo sapiens) is reported as 109 µM.

For `O=C(O)Cn1c(=NC(=O)c2cccc(Cl)c2)sc2c(Cl)cccc21` [Example 358, 2-(7-chloro-2-((3-chlorobenzoyl)imino)benzo[d]thiazol-3(2H)-yl)acetic acid], the IC50 (Homo sapiens) was 29.4 µM.

In the case of `CC(C(=O)O)n1c(=NC(=O)c2cccc(Cl)c2)sc2c(F)cccc21` (stereo not shown) [Example 373, 2-(2-((3-chlorobenzoyl)imino)-7-fluorobenzo[d]thiazol-3(2H)-yl)propionic acid], the IC50 (Homo sapiens) is reported as 92.4 µM.

Work on `CC(C(=O)O)n1c(=NC(=O)c2cccc(C(F)(F)F)c2)sc2c(F)c(F)c(F)cc21` (stereo not shown) [Example 380, 2-(5,6,7-trifluoro-2-((3-(trifluoromethyl)benzoyl)imino)benzo[d]thiazol-3(2H)-yl)propionic acid] yielded an IC50 (Homo sapiens) of 36.2 µM.
